Measurements: patent US8748594B2, “Process for the preparation and purification of topiramate” (Scinopharm Taiwan, Ltd., priority 2010, dated 2014)

Assay: Solubility of topiramate in the first organic solvent (xylene, toluene)
Format: physicochemical
Protocol: It was further observed that the yield during the precipitation step can be improved when using xylene instead of toluene in the present invention. This is attributed to the fact that topiramate is less soluble in xylene compared to toluene. The solubility of topiramate in xylene was detected to be 0.0025 mg per mg xylene whereas the solubility of topiramate in toluene is 0.008 mg per mg solvent. Therefore, when using xylene as the first solvent in the present invention, the loss of topiramate in the mother liquid can be reduced.

solubility of topiramate in toluene (solvent toluene): 0.008 mg per mg solvent
solubility of topiramate in xylene (solvent xylene): 0.0025 mg per mg xylene
Structure (SMILES): CC1(C)O[C@@H]2[C@@H](CO[C@@]3(COS(N)(=O)=O)OC(C)(C)O[C@@H]23)O1 [topiramate, 2,3:4,5-bis-O-(1-methylethylidene)-β-D-fructopyranose sulfamate]
